Patent publication US20040101488A1, “Method for the prevention of septic shock lethality using curcumin” (priority 2000, published 2004)
“Also recorded” adds a separate entry of the source.

Columns and labels:
[1] = tested on: neutrophils in the liver of LPS injected mice; experiment: Liver histology, chloroacetate esterase staining of neutrophils after LPS challenge; details: 24 hrs after LPS challenge, liver sections, FIG. 2
[2] = tested on: adhesion of human peripheral neutrophils to endothelial cells from human umbilical cord; experiment: Cell adherence assay: neutrophil adhesion to endothelial monolayers; format: cell-based
Experimental: Endothelial cells grown to confluency in 96 well plates were incubated without or with indicated concentrations of curcumin for 1 hr followed by induction without (hatched bars) or with (closed bars) LPS (1 μg/ml) for 6 hrs. The cells were then incubated with human peripheral neutrophils for 1 hr. The amount of neutrophils adhering to the endothelial cell monolayers was measured by a colorimetric assay as described in Example 6.
Primary endothelial cells were isolated from human umbilical cord. For isolation of the cells the umbilical cord vein was canulated and then perfused with phosphate buffer saline to remove blood and then incubated with 0.125% trypsin for 15 mins at 37° C. The vein was then perfused with PBS and the cells were collected. […] The viability of endothelial cells in culture was checked by trypan blue exclusion test and the purity was determined by E-selectin staining. […]
Adhesion of neutrophils to endothelial monolayers was assayed as described previously (Dobrina A et al., J. Clin. Invest., 88:20-26 1991). […] The absorbance was determined at […] using an automated microplate reader (Anthos Labtech HT2, Austria).

[3] = tested on: mice injected with lipopolysaccharide (septic shock); experiment: LPS-induced septic shock in mice: survival and symptoms; format: in vivo; details: none prior
[4] = tested on: mice injected with lipopolysaccharide (septic shock); experiment: as above; format: in vivo; details: for Percentage Survival: prior to and after LPS (40 mg/kg i.p.), mice
Experimental: In septic shock experiments, age-and body weight-matched (25-30 g) female swiss albino mice were injected intraperitoneally with 40 mg/kg LPS solubilised in 200 μl sterile 0.9% saline. Control animals received equal volumes of saline. For groups that were treated with curcumin, the mice were fed orally with 20 mg/kg to 60 mg/kg body weight curcumin suspended in olive oil (20 mg/ml) at various times prior to and after injecting LPS. The mice were fed with curcumin 4 hrs and 2 hrs prior to, simultaneously and 4 hrs, 16 hrs, 24 hrs, 48 hrs and 72 hrs after injecting LPS. Following this, the mice were observed every 2-3 hours after LPS injection with respect to septic shock symptoms such as fever, lethargy, diarrhea, watery eyes and survival.
Intraperitoneal injection of high doses of LPS (40 mg/kg) induced lethal endotoxin shock in mice. […] The death occurred within 24-48 hrs after receiving LPS. To test whether curcumin protects mice injected with LPS from septic shock, we treated mice with varying doses of curcumin 4 hrs and 2 hrs prior to, simultaneously and 4 hrs, 16 hrs, 24 hrs, 48hrs and 72 hrs after injecting LPS. […] Overall, severity of the septic shock symptoms in treated group was much less in comparison with control groups (as shown in Table 2). The mice start recovering within 48 to 72 hrs. Most importantly, 70% of the mice treated with 40 mg/kg to 60 mg/kg curcumin survived from death (FIG. 1).

COc1cc(/C=C/C(=O)CC(=O)/C=C/c2ccc(O)c(OC)c2)ccc1O [curcumin, diferuloylmethane]
extravasation of neutrophils in the liver versus untreated mice [1]: much reduced | adhesion of neutrophils to unstimulated endothelial monolayers ([2]; 10 μM to 40 μM curcumin for 1 hr, no LPS): did not affect | inhibition of neutrophil adhesion to LPS stimulated endothelial cells ([2]; curcumin 40 μM for 1 hr, then LPS 1 μg/ml for 6 hrs, concentration dependent over 10 to 40 μM): almost complete inhibition | survival of recovered mice on repeated LPS injection ([3]; curcumin only simultaneously with and after LPS (3, 6, 9, 24, 42 hrs)): all the animals survived; also recorded: all survived death | severity of septic shock symptoms in recovered mice on repeated LPS injection ([3]; curcumin only simultaneously with and after LPS): significant reduction in severity of septic shock symptoms | mice survived from death ([4]; 40 mg/kg to 60 mg/kg curcumin orally, LPS 40 mg/kg i.p., FIG. 1): 70% | Percentage Survival ([4]; curcumin 20 mg/kg body weight orally): 0% | Percentage Survival ([4]; curcumin 40 mg/kg body weight orally): 70% | Percentage Survival ([4]; curcumin 60 mg/kg body weight orally): 70% | severity of the septic shock symptoms versus control groups ([4]; curcumin treated mice, LPS 40 mg/kg i.p., lethargy, watery eyes, diarrhea): much less | protection of mice by low dose of curcumin ([4]; low dose, LPS 40 mg/kg i.p.): not able to protect the mice
